Measurements from patent US20240117402A1, “METHODS FOR (POLY) PEPTIDE TANDEM LIGATION AND CYCLIZATION” (Nanyang Technological University, priority 2021, published 2024).
Read-outs that look alike come from different tables or passages of the source. Values belong to the molecule of their own block, whether it stands above or below them. Where a SMILES comes first, the peptide text is derived from it. Where no end group is shown, it is not given here.

What was measured:
[1] = tested on: MCF-7 cells; assay: Fluorescence microscopy cell binding/staining, MCF-7; format: cell-based; details: MCF-7, 30-min treatment
[2] = tested on: MCF-7 cells; assay: MTT cell viability assay, MCF-7; format: cell-based
[3] = Water solubility; format: physicochemical
[4] = tested on: A431 cells; assay: MTT cell viability assay, A431; format: cell-based
[5] = tested on: EGFR-overexpressing A431 cells; assay: Fluorescence microscopy cell binding/staining, A431; format: cell-based; details: A431, 30-min treatment
[6] = tested on: OaAEP1b; assay: OaAEP1b-catalyzed peptide cyclization (substrate screen, pH scan, kinetics); format: biochemical; details: for Km / kcat: cyclization
Experimental: (§1) FIG. 9. Screening of P1′-Asp peptides for cyclization by A) VyPAL2, B) butelase-1 and C) OaAEP1b. Quantitative summary of reaction yields of the reaction mixtures. For each reaction, 25 nM of the enzyme and 5 μM of the peptide substrate (21a-21i) were mixed and reacted at pH 4.5, 25° C. for 60 min. The positive control peptide 21j was performed at the same conditions except at pH 7.4. Average yields and SDs were calculated from experiments performed in triplicate. The amino acid sequence of the peptides used are set forth in SEQ ID Nos. 15-24.
(§2) FIG. 10. Ligation activity of three different ligases under different pH and substrate. Cyclization activity of A) VyPAL2, B) Butelase-1 or C) OaAEP1b towards substrate 21e-DSL and 21j-NGL; Fold difference was calculated using the cyclization rate of 21j-NGL divided by that of 21e-DSL. All the results were the average reaction rate at different pH in triplicate experiments based on MALDI-TOF analysis. Light grey text in the “Fold difference” axis marks to the maximum fold difference.
(§3) FIG. 11. Enzymatic activity of three different ligases on the cyclization reaction of P1-Asp peptide 21e-DSL or 21a-DGL and P1-Asn-peptide 21j-NGL. A) Scheme of PAL-mediated P1-Asp peptide cyclization; B) Enzymatic kinetics of VyPAL2 in cyclizing 21e-DSL at pH 4.5; C) Enzymatic kinetics of VyPAL2 in cyclizing 21e-DSL at pH 7.0; D) Enzymatic kinetics of OaAEP1b in cyclizing 21a-DGL at pH 5.5; E) Enzymatic kinetics of Butelase-1 in cyclizing 21e-DSL at pH 4.5. F) Scheme of PAL-mediated cyclization of peptide 21j-NGL; G). Enzymatic kinetics of butelase-1 in cyclizing […] at pH 4.5; H)
(§4) Enzymatic kinetics of VyPAL2 in cyclizing 21j-NSL at pH 4.5; I) Enzymatic kinetics of butelase-1 in cyclizing 21j-NSL at pH 7.4; J) Enzymatic kinetics of OaAEP1b in cyclizing 21j-NSL at pH 7.0. Sequences of peptides used are set forth in SEQ ID Nos. 15, 19, 24.
(§5) PALs recognize a tripeptide motif Asx-P1′-P2′ in the acyl donor substrate for their catalyzed ligation reactions. Because the formation of the acyl-enzyme thioester intermediate is the rate-limiting step, the leaving group P1′-P2′ also plays an important role in determining the catalytic kinetics of a particular 40 PAL-mediated reaction. Previous studies have determined Leu as a preferred P2′ residue. To identify the most favorable P1′ residues for PAL-catalyzed Asp-ligation, a panel of peptides (peptide 21a-21j) with C-terminal DXL and N-terminal GI motifs was synthesized and cyclization reactions performed. Peptide 21j with a C-terminal NGL, a P1-Asn peptide favored by VyPAL2, was used for comparison with the P1-Asp peptides 21a-21i. […] Meanwhile, the P1′ substrate specificities of the two other ligases - Butelase-1 and OaAEP1b - were also evaluated by using the same substrates 21a-21j.
(§6) A pH scan experiment with the other two ligases: butelase-1 and OaAEP1 b, for their cyclase activity on 21e and 21j was also conducted. […] In fact, the difference in reaction efficiency between 21j and 21e was about 950 times at pH 7.4 (FIG. 10). […] This makes VyPAL2 a more efficient ligase than butelase-1 for Asp-mediated protein modification.
It seems that the microenvironment within the 51 pocket of OaAEP1 b has a unique ability to maintain the γCOOH of P1-Asp in the protonated form. However, for OaAEP1b-catalyzed cyclization, the difference in reactivity between 21j and 21e at pH 4.0-7.4 was not very high. The biggest difference was 9.5 folds at pH 7.4. […]

[7] = tested on: VyPAL2; assay: VyPAL2-catalyzed peptide cyclization (substrate screen, pH scan, kinetics); format: biochemical, Viola yedoensis
Experimental: as §1, §2, §3, §4, §5
scanning experiment using the two peptides 21e and 21j was performed. Cyclization reactions were conducted by mixing 5 μM of peptide 21e or 50 μM of 21j with 25 nM of VyPAL2 over a pH range of 4.0 to 7.4. Results confirmed that the optimum pH for the cyclization of the P1-Asn peptide 21j was 6.5-7.4. But for the P1-Asp peptide 21e (which has the C-terminal DSL tripeptide), the optimum pH was 4.0-4.5.
It is worth noting that, at pH 7.4, VyPAL2 processed peptide 21j for cyclization at a rate that is >1000 folds faster than processing peptide 21e (FIG. 10). This enormous difference of reactivity essentially established the orthogonality for ligation at Asn in the presence of aspartyl bonds.

[8] = tested on: butelase-1; assay: Butelase-1-catalyzed peptide cyclization (substrate screen, pH scan, kinetics); format: biochemical; details: for Km / kcat: Butelase-1, cyclization
Sequence of butelase-1 (as listed by the source): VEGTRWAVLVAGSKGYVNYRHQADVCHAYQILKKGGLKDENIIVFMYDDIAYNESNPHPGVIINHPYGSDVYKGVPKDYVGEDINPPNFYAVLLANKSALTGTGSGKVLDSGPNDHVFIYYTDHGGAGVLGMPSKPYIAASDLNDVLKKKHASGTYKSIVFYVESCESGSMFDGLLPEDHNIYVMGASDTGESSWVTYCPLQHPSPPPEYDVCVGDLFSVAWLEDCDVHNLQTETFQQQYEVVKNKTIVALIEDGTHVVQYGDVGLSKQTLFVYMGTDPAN
Experimental: as §1, §2, §3, §4, §5, §6

[9] = cyclization of a model peptide; cited from earlier work
[10] = target: T1, Peptide 21a (SEQ ID NO:15), GISTKSIPPISYRDGL
T1 chain: GISTKSIPPISYRDGL

[11] = target: T2, Peptide 21j (SEQ ID NO:24), GISTKSIPPISYRNGL
T2 chain: GISTKSIPPISYRNGL

Km ([6]; pH 5.5): 35.1 ± 5.9 µM
Molecule: GISTKSIPPISYRDGL (GISTKSIPPISYRDGL-NH2) [Peptide 21a]
kcat ([6]; pH 5.5): 5.9 ± 0.7 s⁻¹

Km ([6]; pH 7.0): 25.3 ± 2.5 µM | Km ([7]; VyPAL2, cyclization, pH 4.5): 28.4 ± 4.1 µM | Km ([7]; VyPAL2, cyclization, pH 7.4): 25.8 ± 1.7 µM | Km ([8]; pH 4.5): 12.7 ± 2.1 µM | kcat ([8]; pH 4.5): 0.6 ± 0.05 s⁻¹ | Km ([8]; pH 7.4): 13.5 ± 1.5 µM | kcat ([8]; pH 7.4): 9.4 ± 0.3 s⁻¹ | difference in reaction efficiency between 21j and 21e ([8]; butelase-1, pH 7.4): about 950 times
Molecule: GISTKSIPPISYRNGL (GISTKSIPPISYRNGL-NH2) [Peptide 21j]
kcat ([6]; pH 7.0): 5.5 ± 0.3 s⁻¹ | difference in reactivity between 21j and 21e (biggest) ([6]; pH 7.4): 9.5 folds | optimum pH for cyclization ([7]; 25 nM VyPAL2, pH range 4.0 to 7.4, 5 μM 21e or 50 μM 21j): 6.5-7.4 | kcat ([7]; VyPAL2, cyclization, pH 4.5): 1.9 ± 0.18 s⁻¹ | Vmax ([7]; VyPAL2, cyclization, pH 7.4): 5.633 µM/min | kcat ([7]; VyPAL2, cyclization, pH 7.4): 5.5 ± 0.4 s⁻¹ | fold difference, cyclization rate of 21j versus 21e ([7]; VyPAL2, pH 7.4): > 1000 folds

The next lines start with the molecule.

Molecule: COc1cccc2c1C(=O)c1c(O)c3c(c(O)c1C2=O)C[C@@](O)(C(=O)CO)C[C@@H]3O[C@H]1C[C@H](N)[C@H](O)[C@H](C)O1 [Dox, doxorubicin]
cell staining (confocal) ([1]; 10 μM): stained | cell staining ([1]; 2 μM 20, 10 μM DOX): stained | IC50 ([2]; Homo sapiens, MCF7, MCF-7, 36 h, MTT, read-out: IC50): 1 ± 0.02 µM | IC50 ([2]; Homo sapiens, MCF7, MCF-7, 96 h, MTT, read-out: IC50): 1.6 ± 0.23 µM | water solubility [3]: poorly soluble in water | IC50 ([4]; Homo sapiens, A-431, A431, 36 h, MTT, read-out: IC50): 1.3 ± 0.04 µM | IC50 ([4]; Homo sapiens, A-431, A431, 96 h, MTT, read-out: IC50): 1.22 ± 0.15 µM | cell staining (confocal) ([5]; 10 μM): stained | cell staining ([5]; 2 μM 20, 10 μM DOX): stained

Molecule: CC[C@H](C)[C@H](NC(=O)CN)C(=O)NCC(=O)NCC(=O)N[C@@H](Cc1ccccc1)C(=O)N[C@@H](CCCCN)C(=O)NCC(=O)NCC(=O)N[C@H](CCCCN)C(=O)N[C@H](CC(C)C)C(=O)N[C@H](C)C(=O)N[C@H](CCCCN)C(=O)N[C@H](CC(C)C)C(=O)N[C@H](C)C(=O)N[C@H](CCCCN)C(=O)N[C@H](CCCCN)C(=O)N[C@H](CC(C)C)C(=O)N[C@H](C)C(=O)N[C@H](CCCCN)C(=O)N[C@H](CC(C)C)C(=O)N[C@H](C)C(=O)N[C@H](CCCCN)C(N)=O [Peptide 11] (HELM PEPTIDE1{G.I.G.G.F.K.G.G.[dK].[dL].[dA].[dK].[dL].[dA].[dK].[dK].[dL].[dA].[dK].[dL].[dA].[dK].[am]}$$$$V2.0; N-terminus assumed)
IC50 ([2]; 84 h): ~480 µM | IC50 ([4]; 84 h): ~1300 µM

B1: VyPAL2: plant legumain from the Viola Yedoensis family, highly active peptidyl asparaginyl ligase (SEQ ID NO:1) (protein)
chain: DSIGTRWAVLIAGSKGYHNYRHQADVCHMYQILRKGGVKDENIIVFMYDDIAYNESNPFPGIIINKPGGENVYKGVPKDYTGEDINNVNFLAAILGNKSAIIGGSGKVLDTSPNDHIFIYYADHGAPGKIGMPSKPYLYADDLVDTLKQKAATGTYKSMVFYVEACNAGSMFEGLLPEGTNIYAMAASNSTEGSWITYCPGTPDFPPEFDVCLGDLWSITFLEDCDAHNLRTETVHQQFELVKKKIAYASTVSQYGDIPISKDSLSVYM
modifications: VyPAL2 core domain
catalytic efficiency [9]: 274,325 M^−1 s^−1

B2: OaAEP1b (SEQ ID NO:44) (protein)
chain: SVGTRWAVLIAGSKGYANYRHQAGVCHAYQILKRGGLKDENIVVFMYDDIAYNESNPRPGVIINSPHGSDVYAGVPKDYTGEEVNAKNFLAAILGNKSAITGGSGKVVDSGPNDHIFIYYTDHGAAGVIGMPSKPYLYADELNDALKKKHASGTYKSLVFYLEACESGSMFEGILPEDLNIYALTSTNTTESSWAYYCPAQENPPPPEYNVCLGDLFSVAWLEDSDVQNSWYETLNQQYHHVDKRISHASHATQYGNLKLGEEGLFVYMGSNPANDNYTSLDGNALTPSSIVVNQRDAD
Km, cyclization at pH 5.5 [10]: 35.1 µM | kcat, cyclization at pH 5.5 [10]: 5.9 s⁻¹ | kcat/Km, cyclization at pH 5.5 [10]: 172000 ± 9250 M^-1s^-1 | Km, cyclization at pH 7.0 [11]: 25.3 µM | kcat, cyclization at pH 7.0 [11]: 5.5 s⁻¹ | kcat/Km, cyclization at pH 7.0 [11]: 211000 ± 8260 M^-1s^-1
